From ChEMBL document CHEMBL4627257, “Targeting the DNA damage response (DDR) by natural compounds” (Bioorg Med Chem, 2020)
Active and inactive are the calls of the source. No cut-off for these calls is given here.

Legend:
SU.86.86 [1] = test: Induction of DNA damage in human SU8686 cells assessed as increase in gammaH2AX phosphorylation at […] at cytotoxic IC50 incubated for 24 hrs by fluorometry method; type: functional
SU.86.86 [2] = test: Induction of DNA damage in human SU8686 cells assessed as increase in gammaH2AX phosphorylation at […] at cytotoxic IC50 in presence of 0.3 uM doxorubicin by fluorometry method; type: functional
SU.86.86 [3] = test: Induction of DNA damage in human SU8686 cells assessed as increase in gammaH2AX phosphorylation at […] at cytotoxic IC50 in presence of 5 uM cisplatin by fluorometry method; type: functional
SU.86.86 [4] = test: Induction of DNA damage in human SU8686 cells assessed as increase in gammaH2AX nuclear foci under basal condition at IC50 by fluorometry method; type: functional, cell-based
SU.86.86 [5] = test: Induction of DNA damage in human SU8686 cells assessed as tail DNA formation at IC50 by alkaline Comet assay; type: functional, cell-based
SU.86.86 [6] = test: Induction of DNA damage in human SU8686 cells assessed as increase gammaH2AX protein level at IC50 for 24 hrs in presence of 5 uM cisplatin by western blot analysis; type: functional, cell-based
SU.86.86 [7] = test: Induction of DNA damage in human SU8686 cells assessed as tail DNA formation at IC50 in presence of 5 uM cisplatin by alkaline Comet assay; type: functional, cell-based
SU.86.86 [8] = test: Induction of DNA damage in human SU8686 cells assessed as increase gammaH2AX protein level at IC50 for 24 hrs in presence of 0.3 uM doxorubicin by western blot analysis; type: functional, cell-based

Cc1cc(O)cc2c1Oc1cc(O)c(O)c(C)c1C(=O)O2
Activity (SU.86.86 [1]): >30%

O=C1c2cccc(O)c2C(=O)c2c(O)cc(CO)cc21 [ALOE-EMODIN]
Activity (SU.86.86 [2]): >20%

CC[C@H](C)[C@H]1C(=O)N[C@@H](Cc2ccc(OCC=C(C)C)cc2)C(=O)N(C)[C@@H](C)C(=O)O[C@@H](Cc2ccccc2)C(=O)N2CCC[C@H]2C(=O)N[C@H](C(=O)O)C(=O)N1C
Activity (SU.86.86 [2]): >20%

CCCCCC[C@H](C)/C=C(C)/C=C/C(=O)N[C@@H]1C[C@@]2(O[C@@H]1O)[C@@H]1O[C@@H]1C(=O)[C@@H]1O[C@@H]12
Activity (SU.86.86 [2]): >20%

O=C1C[C@@H](c2ccccc2)Oc2cc(O)cc(O)c21 [PINOCEMBRIN]
Activity (SU.86.86 [1]): >30%

Oc1c(Br)cc(Br)cc1Oc1ccc(Br)cc1Br
Activity (SU.86.86 [3]): >20% | Activity (SU.86.86 [2]): >20%

COc1cc(O)c2c(c1)C(=O)c1cc(C)c(O)cc1C2=O [MACROSPORIN]
Activity (SU.86.86 [2]): >20%

C=C1[C@@H](C)[C@H]2[C@H](Cc3ccccc3)NC(=O)[C@]23[C@H](OC(C)=O)/C=C\[C@@H](C)C[C@@H](C)C/C=C\[C@H]3[C@@H]1O
Activity (SU.86.86 [1]): >=30%

CC(C)=CCc1cc(-c2coc3cc(O)ccc3c2=O)ccc1O [NEOBAVAISOFLAVONE]
Activity (SU.86.86 [3]): >20% | Activity (SU.86.86 [2]): >20%

C=C1CC[C@@H]2C(C)(C)CCC[C@@]2(C)[C@@H]1CC/C(C)=C/Cn1c[n+](C)c2ncnc(NO)c21
Activity (SU.86.86 [3]): >20%

C=C1CCC[C@H]2[C@](C)(CC3=C(O)C(=O)C=C(N[C@@H](CO)C(=O)O)C3=O)[C@@H](C)CC[C@]12C
Activity (SU.86.86 [1]): >30%

COC(=O)/C=C/Oc1ccc(OC)cc1
Activity (SU.86.86 [2]): >20%

C/C=C(\C)[C@H]1[C@@H](/C=C/C=C(\C)[C@@H](O)[C@@H](C)CO)[C@@H]2C[C@@H](OC(=O)Cc3ccccc3)[C@](C)(O)C[C@H]2[C@@H]2O[C@@]21C
Activity (SU.86.86 [4]): Active | Activity (SU.86.86 [2]): >20% | Activity (SU.86.86 [5]): Active

COC1=C(Br)[C@H](O)[C@](O)(CC#N)C=C1Br
Activity (SU.86.86 [2]): >20%

Cc1cc(O)cc2c1Oc1cc(O)cc(C)c1C(=O)O2
Activity (SU.86.86 [3]): >20% | Activity (SU.86.86 [2]): >20%

COC1=CC(=O)[C@]2(C=C1OC)OC[C@H]1Oc3c4c(cc(O)c3C(=O)[C@H]12)OC(C)(C)C=C4
Activity (SU.86.86 [1]): >30%

CC(C)=CCc1cc(C(=O)/C=C/c2ccc(O)cc2)c(O)cc1O [BROUSSOCHALCONE B]
Activity (SU.86.86 [2]): >20% | Activity (SU.86.86 [1]): >30%

CCOC(=O)c1cc(Br)c(Br)[nH]1
Activity (SU.86.86 [2]): >20%

CC(=O)c1c(O)cc(O)cc1C[C@@H]1Cc2cc(O)cc(O)c2C(=O)O1
Activity (SU.86.86 [1]): >30%

CCCCCC(N)=O
Activity (SU.86.86 [2]): >20% | Activity (SU.86.86 [1]): >30%

C/C=C1\NC(=O)[C@H](Cc2ccccc2)NC(=O)[C@@H](C(C)C)NC(=O)[C@H]([C@@H](C)CC)NC(=O)[C@H](NC(=O)[C@H](NC(=O)[C@H](CCCN)NC(=O)[C@H]2CCCN2C(=O)[C@H](NC(=O)[C@@H](NC(=O)[C@H](NC(=O)[C@H](NC(=O)CCCC(C)C)C(C)C)[C@@H](C)O)C(C)C)C(C)C)[C@@H](C)CC)C(C)OC(=O)[C@H](C(C)C)NC1=O (stereo partly specified)
Activity (SU.86.86 [3]): >20%

Cc1cc(O)c2c(c1)C(=O)c1c(c(O)cc(O)c1-c1c(O)cc(O)c3c1C(=O)c1cc(C)cc(O)c1C3=O)C2=O [SKYRIN]
Activity (SU.86.86 [2]): >20%

COC1=C(Br)[C@H](O)[C@@]2(C=C1Br)CC(C(=O)NCCCCNC(=O)C1=NO[C@]3(C=C(Br)C(OC)=C(Br)[C@@H]3O)C1)=NO2 [AEROTHIONIN]
Activity (SU.86.86 [2]): >20%

O=c1cc(CO)occ1O [KOJIC ACID]
Activity (SU.86.86 [2]): >20%

O=c1[nH]c2ccccc2c(-c2ccccc2)c1O
Activity (SU.86.86 [2]): >20%

CC[C@H](C)[C@H](NC(=O)[C@H](Cc1ccccc1)NC(=O)[C@H](CC(C)C)NC(=O)[C@@H]1CCCN1C(=O)/C1=C/N[C@@H](C(C)C)C(=O)N2CCC[C@H]2C(=O)N[C@@H](C(C)C)C(=O)N[C@@H](Cc2ccccc2)C(=O)N2CCC[C@H]2C(=O)N1)C(N)=O
Activity (SU.86.86 [1]): >30%

Oc1cccc2c1[nH]c1c(C3=C[C@@]4(O)CC/C=C\CCCCN5CC[C@@H]3[C@]3(C[C@@H]6/C=C\CCCCN6[C@H]34)C5)nccc12
Activity (SU.86.86 [3]): >20% | Activity (SU.86.86 [2]): >20%

CC(C)[C@H]1OC(=O)[C@H](Cc2ccccc2)N(C)C(=O)[C@@H](C(C)C)OC(=O)[C@H](Cc2ccccc2)N(C)C(=O)[C@@H](C(C)C)OC(=O)[C@H](Cc2ccccc2)N(C)C1=O
Activity (SU.86.86 [4]): Active | Activity (SU.86.86 [6]): Active | Activity (SU.86.86 [5]): Active

C=C[C@@](C)(/C=C/c1ccc(O)cc1)CCC=C(C)C [BAKUCHIOL]
Activity (SU.86.86 [2]): >20%

COc1ccc(CC#N)c(O)c1
Activity (SU.86.86 [2]): >20%

C[C@H]1CCC/C=C\C(=O)Cc2cc(O)cc(O)c2C(=O)O1
Activity (SU.86.86 [1]): >30%

CC1=CCC[C@H]2[C@](C)(CC3=CC(=O)C=CC3=O)[C@@H](C)CC[C@]12C [AVARONE]
Activity (SU.86.86 [3]): >20% | Activity (SU.86.86 [2]): >20%

COC(C)CCOC(=O)c1cc(O)c(O)c(O)c1 (stereo unspecified)
Activity (SU.86.86 [1]): >30%

O=C1C[C@H](O)[C@H]2c3ccc(O)c4c3[C@H](c3ccc(O)c1c32)[C@@H](O)CC4=O
Activity (SU.86.86 [3]): >20%

CC(C)[C@@H]1OC(=O)[C@@H](Cc2ccc(O)cc2)N(C)C(=O)[C@H](C(C)C)OC(=O)[C@@H](Cc2ccccc2)N(C)C(=O)[C@H](C(C)C)OC(=O)[C@@H](Cc2ccccc2)N(C)C1=O
Activity (SU.86.86 [1]): >30% | Activity (SU.86.86 [6]): Active | Activity (SU.86.86 [7]): Active | Activity (SU.86.86 [5]): Active

CC(C)=CCC[C@@H](C)c1ccc(C)c(O)c1 [XANTHORRIZOL]
Activity (SU.86.86 [2]): >20%

[O-][n+]1ccc2c([nH]c3ccccc32)c1C1=C[C@@]2(O)CC/C=C\CCCCN3CC[C@@H]1[C@]1(CC/C=C\CCCCN[C@H]12)C3
Activity (SU.86.86 [2]): >20%

COC(=O)c1cc(O)cc(OC)c1C(=O)c1c(O)c(Cl)c(C)c(Cl)c1O [DIHYDROGEODIN]
Activity (SU.86.86 [2]): >20%

CC1=C(CC/C(C)=C/CC/C(C)=C/CCC2=CC(=O)OC2O)C(C)(C)CCC1 (stereo unspecified) [LUFFARIELLOLIDE]
Activity (SU.86.86 [3]): >20% | Activity (SU.86.86 [2]): >20%

CCCCC/C=C/C(=O)[C@H]1C(=O)O[C@@]2(C)C(=O)C(C=O)=C3C=C(C)OC=C3[C@H]12
Activity (SU.86.86 [1]): >30% | Activity (SU.86.86 [6]): Active | Activity (SU.86.86 [5]): Active

CC1=CCC[C@H]2[C@](C)(Cc3cc(O)ccc3O)[C@@H](C)CC[C@]12C [AVAROL]
Activity (SU.86.86 [2]): >20%

COC(=O)C[C@@H]1Cc2cc3c(-c4c(OC)cc(O)c5c(O)c6c(cc45)C[C@@H](CC(=O)OC)OC6=O)c(OC)cc(O)c3c(O)c2C(=O)O1
Activity (SU.86.86 [8]): Active | Activity (SU.86.86 [4]): Active | Activity (SU.86.86 [6]): Active | Activity (SU.86.86 [5]): Active

C=CC(C)(C)[C@@]12C[C@H]3C(=O)N/C(=C/c4c[nH]cn4)C(=O)N3[C@@H]1Nc1ccccc12 [ROQUEFORTINE C]
Activity (SU.86.86 [2]): >20%

COc1cc(O)c2c(=O)oc3cc(O)cc(C)c3c2c1
Activity (SU.86.86 [2]): >20%

O=C1CCCN2[C@@H](CC1)C[C@]13CN4CCCC/C=C\CC[C@](O)(C=C(c5nccc6c5[nH]c5c(O)cccc56)[C@@H]1CC4)[C@H]23
Activity (SU.86.86 [3]): >20% | Activity (SU.86.86 [2]): >20%

CC[C@H](C)C1C(=O)O[C@H](C(C)C)C(=O)N(C)[C@@H]([C@@H](C)CC)C(=O)O[C@H](C(C)C)C(=O)N(C)[C@@H](C(C)C)C(=O)O[C@H](C(C)C)C(=O)N1C (stereo partly specified)
Activity (SU.86.86 [2]): >20%

COc1cc(O)c2c(c1)C(=O)C1=C(C2=O)[C@H](O)[C@@H](O)[C@@](C)(O)[C@@H]1O [ALTERSOLANOL A]
Activity (SU.86.86 [3]): >20% | Activity (SU.86.86 [2]): >20%

COC1=C(Br)[C@@H](O)[C@]2(C=C1Br)CC(C(=O)NC[C@@H](O)c1cc(Br)c(OC[C@@H](O)CNC(=O)C3=NO[C@]4(C=C(Br)C(OC)=C(Br)[C@@H]4O)C3)c(Br)c1)=NO2
Activity (SU.86.86 [2]): >20%

COc1cc(C[C@H]2COC(=O)[C@@H]2Cc2ccc(O)c(OC)c2)ccc1O [MATAIRESINOL]
Activity (SU.86.86 [2]): >20%

CCCc1cc(OC)cc(O)c1C(=O)Oc1c(OC)cc(CCC)c(C(=O)O)c1O
Activity (SU.86.86 [3]): >20%

CN1C(=O)NC(CCCNC(=O)c2cc(Br)c(Br)n2C)C1=O (stereo unspecified) [MIDPACAMIDE]
Activity (SU.86.86 [2]): >20%

CCCCCc1cc(OC)c(OC(=O)c2c(O)cc(OC)cc2CCC)c(O)c1C(=O)O
Activity (SU.86.86 [2]): >20%

CC(C)=CCC/C(C)=C/CC/C(C)=C/CC/C(C)=C/CC/C(C)=C/CC/C(C)=C/Cc1cc(O)ccc1O
Activity (SU.86.86 [4]): Active | Activity (SU.86.86 [5]): Active
